PMC5384001 (Scientific Reports, 2017)
Substitutions are numbered along the chain they refer to. “And” between values parts separate entries of the source, which are not always exact repeats. Equal entries are not always repeated.

Assays:
[1] = target: T1, GluD2-Lc(Y543Q)-(HS2)GluN1 (Rattus norvegicus, UniProt Q63226, A654T/A766F/D767R/N763E/R768S/T764L/V761T/V765F/Y543Q); experiment: Two-electrode voltage clamp in Xenopus oocytes, inhibition of spontaneous currents; assay type: cell-based; details: fraction of spontaneous current inhibited by saturating D-serine
T1 construct: the function of full-length receptors as well, we introduced them into the GluD2 lurcher mutant (GluD2-Lc); expressed in transfected cells; host or cells: Xenopus laevis oocytes injected with cRNA
T1 sequence (Q63226 24-1007 Y543Q/A654T/V761T/N763E/T764L/V765F/A766F/D767R/R768S): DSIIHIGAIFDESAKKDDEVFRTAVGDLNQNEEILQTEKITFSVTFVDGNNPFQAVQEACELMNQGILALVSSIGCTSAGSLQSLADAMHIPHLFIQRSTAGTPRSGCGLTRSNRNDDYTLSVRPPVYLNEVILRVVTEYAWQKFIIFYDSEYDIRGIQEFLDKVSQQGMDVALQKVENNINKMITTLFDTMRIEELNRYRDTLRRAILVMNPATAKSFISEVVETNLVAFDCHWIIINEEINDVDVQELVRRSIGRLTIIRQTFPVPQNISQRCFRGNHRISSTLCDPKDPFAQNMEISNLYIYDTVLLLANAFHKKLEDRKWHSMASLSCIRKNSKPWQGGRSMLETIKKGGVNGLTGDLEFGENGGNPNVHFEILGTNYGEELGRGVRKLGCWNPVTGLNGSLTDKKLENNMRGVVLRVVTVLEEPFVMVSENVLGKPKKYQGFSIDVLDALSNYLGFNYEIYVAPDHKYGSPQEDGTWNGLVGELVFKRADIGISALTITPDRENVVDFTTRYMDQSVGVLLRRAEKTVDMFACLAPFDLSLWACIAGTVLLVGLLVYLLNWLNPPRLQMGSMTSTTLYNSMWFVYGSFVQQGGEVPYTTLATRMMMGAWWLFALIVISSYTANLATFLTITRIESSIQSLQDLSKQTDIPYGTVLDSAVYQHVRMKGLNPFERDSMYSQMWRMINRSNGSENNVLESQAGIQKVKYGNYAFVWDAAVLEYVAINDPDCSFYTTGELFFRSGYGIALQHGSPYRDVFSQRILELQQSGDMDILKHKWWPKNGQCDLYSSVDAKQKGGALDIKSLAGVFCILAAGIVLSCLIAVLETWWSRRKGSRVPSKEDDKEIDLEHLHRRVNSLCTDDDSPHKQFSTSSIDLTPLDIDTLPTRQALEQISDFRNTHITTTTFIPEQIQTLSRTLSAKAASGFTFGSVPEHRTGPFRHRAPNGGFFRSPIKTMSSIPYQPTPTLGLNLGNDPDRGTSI

GluD2-Lc-(H)GluN1 = target: T2, GluD2-Lc-(H)GluN1 (Rattus norvegicus, UniProt Q63226, A654T/A766F/D542Y/D767R/N763E/R768S/S544G/T764L/V761T/V765F/Y543Q); experiment: as above; assay type: cell-based
T2 construct: the function of full-length receptors as well, we introduced them into the GluD2 lurcher mutant (GluD2-Lc); expressed in transfected cells; host or cells: Xenopus laevis oocytes injected with cRNA
T2 sequence (Q63226 24-1007 D542Y/Y543Q/S544G/A654T/V761T/N763E/T764L/V765F/A766F/D767R/R768S): T1 sequence (Q63226 24-1007 Y543Q/A654T/V761T/N763E/T764L/V765F/A766F/D767R/R768S) with D519Y, S521G

N[C@H](CO)C(=O)O [D-serine]
D-serine efficacy Mean ± SEM [1]: 24.1 ± 0.4%
D-serine concentration of maximum inhibition of spontaneous currents (GluD2-Lc-(H)GluN1; bell-shaped concentration–response curve): 10 µM
D-serine efficacy Mean ± SEM (GluD2-Lc-(H)GluN1; fraction of spontaneous current inhibited by saturating D-serine): 13% and 12.9 ± 0.8%
maximal, absolute, D-serine-induced steady-state inhibition of spontaneous currents (GluD2-Lc-(H)GluN1; n = 30): 53 ± 8 nA
